Reference: ChEMBL document CHEMBL1146703, “Mannopeptimycin esters and carbonates, potent antibiotic agents against drug-resistant bacteria” (2004)
Converted amounts (≈) assume the structure as drawn.

Legend:
Staphylococcus aureus [1] = experiment: Antibacterial activity against Staphylococcus aureus; Range is 8-16; assay type: functional
Enterococcus faecalis [2] = experiment: Antibacterial activity against Enterococcus faecalis; Range is 64->64; assay type: functional
Escherichia coli = experiment: Antibacterial activity against Escherichia coli at </=64 ug/mL; No activity; assay type: functional, organism-based
Staphylococcus aureus [3] = experiment: Antibacterial activity against Staphylococcus aureus; Range is 0.5-1; assay type: functional
Mus musculus = experiment: Antibacterial activity against Staphylococcus aureus infection in mouse after i.v. administration (Vancomycin, ED50= 1.0 mg/kg ); assay type: functional; details: route intravenous
Enterococcus faecalis [4] = experiment: Antibacterial activity against Enterococcus faecalis; Range is 1-4; assay type: functional
Enterococcus faecalis [5] = experiment: Antibacterial activity against Enterococcus faecalis; Range is 16-32; assay type: functional
Staphylococcus aureus [6] = experiment: Antibacterial activity against Staphylococcus aureus; Range is 4-8; assay type: functional
Enterococcus faecalis [7] = experiment: Antibacterial activity against Enterococcus faecalis; Range is 8-16; assay type: functional
Staphylococcus aureus [8] = experiment: Antibacterial activity against Staphylococcus aureus; Range is 2-4; assay type: functional
Staphylococcus aureus [9] = experiment: Antibacterial activity against Staphylococcus aureus; assay type: functional
Staphylococcus aureus [10] = experiment: Antibacterial activity against Staphylococcus aureus; Range is 1-2; assay type: functional
Enterococcus faecalis [11] = experiment: Antibacterial activity against Enterococcus faecalis; Range is 4-8; assay type: functional
Enterococcus faecalis [12] = experiment: Antibacterial activity against Enterococcus faecalis; assay type: functional
Enterococcus faecalis [13] = experiment: Antibacterial activity against Enterococcus faecalis; Range is 4-32; assay type: functional

| SMILES | MIC (Escherichia coli) | ED50 (Mus musculus) [mg/kg] | MIC (Staphylococcus aureus [9]) [µg/mL] | further results |
| --- | --- | --- | --- | --- |
| C[C@@H](c1ccccc1)[C@@H]1NC(=O)CNC(=O)[C@H](CO)NC(=O)[C@@H]([C@@H](O)[C@@H]2CNC(N)N2[C@H]2O[C@H](CO)[C@@H](O)[C@H](O)[C@@H]2O)NC(=O)[C@H]([C@@H](O)[C@@H]2CNC(N)N2)NC(=O)[C@@H](Cc2ccc(O[C@H]3O[C@H](COC(=O)Cc4ccccc4)[C@@H](O[C@H]4O[C@H](CO)[C@@H](O)[C@H](O)[C@@H]4O)[C@H](O)[C@@H]3O)cc2)NC1=O (some centres not stated) | No activity |  |  | MIC (Staphylococcus aureus [1]): 16 µg/mL (≈ 11.3 µM); MIC (Enterococcus faecalis [2]): 64 µg/mL (≈ 45.2 µM) |
| CCCCCCC(=O)OC[C@H]1O[C@H](O[C@H]2[C@H](O)[C@H](O)[C@@H](Oc3ccc(C[C@H]4NC(=O)[C@H]([C@@H](C)c5ccccc5)NC(=O)CNC(=O)[C@H](CO)NC(=O)[C@@H]([C@@H](O)[C@@H]5CNC(N)N5[C@H]5O[C@H](CO)[C@@H](O)[C@H](O)[C@@H]5O)NC(=O)[C@H]([C@@H](O)[C@@H]5CNC(N)N5)NC4=O)cc3)O[C@@H]2CO)[C@@H](O)[C@@H](O)[C@@H]1O (some centres not stated) | No activity | 4 |  | MIC (Staphylococcus aureus [3]): 1 µg/mL (≈ 0.708 µM); MIC (Enterococcus faecalis [4]): 4 µg/mL (≈ 2.83 µM) |
| CCCCCC(=O)OC[C@H]1O[C@H](Oc2ccc(C[C@H]3NC(=O)[C@H]([C@@H](C)c4ccccc4)NC(=O)CNC(=O)[C@H](CO)NC(=O)[C@@H]([C@@H](O)[C@@H]4CNC(N)N4[C@H]4O[C@H](CO)[C@@H](O)[C@H](O)[C@@H]4O)NC(=O)[C@H]([C@@H](O)[C@@H]4CNC(N)N4)NC3=O)cc2)[C@@H](O)[C@@H](O)[C@@H]1O[C@H]1O[C@H](CO)[C@@H](O)[C@H](O)[C@@H]1O (some centres not stated) | No activity |  |  | MIC (Enterococcus faecalis [5]): 32 µg/mL (≈ 22.9 µM); MIC (Staphylococcus aureus [6]): 8 µg/mL (≈ 5.72 µM) |
| C[C@@H](c1ccccc1)[C@@H]1NC(=O)CNC(=O)[C@H](CO)NC(=O)[C@@H]([C@@H](O)[C@@H]2CNC(N)N2[C@H]2O[C@H](CO)[C@@H](O)[C@H](O)[C@@H]2O)NC(=O)[C@H]([C@@H](O)[C@@H]2CNC(N)N2)NC(=O)[C@@H](Cc2ccc(O[C@H]3O[C@H](CO)[C@@H](O[C@H]4O[C@H](COC(=O)Cc5ccccc5)[C@@H](O)[C@H](O)[C@@H]4O)[C@H](O)[C@@H]3O)cc2)NC1=O (some centres not stated) | No activity |  |  | MIC (Enterococcus faecalis [7]): 16 µg/mL (≈ 11.3 µM); MIC (Staphylococcus aureus [8]): 4 µg/mL (≈ 2.82 µM) |
| CC(C)CC(=O)O[C@H]1[C@H](O)[C@H](O)[C@@H](O[C@H]2[C@H](O)[C@H](O)[C@@H](Oc3ccc(C[C@H]4NC(=O)[C@H]([C@@H](C)c5ccccc5)NC(=O)CNC(=O)[C@H](CO)NC(=O)[C@@H]([C@@H](O)[C@@H]5CNC(N)N5[C@H]5O[C@H](CO)[C@@H](O)[C@H](O)[C@@H]5O)NC(=O)[C@H]([C@@H](O)[C@@H]5CNC(N)N5)NC4=O)cc3)O[C@@H]2CO)O[C@@H]1CO (some centres not stated) | No activity | 0.6 | 4 (≈ 2.89 µM) | MIC (Enterococcus faecalis [5]): 32 µg/mL (≈ 23.1 µM) |
| CCCCCC(=O)OC[C@H]1O[C@H](O[C@H]2[C@H](O)[C@H](O)[C@@H](Oc3ccc(C[C@H]4NC(=O)[C@H]([C@@H](C)c5ccccc5)NC(=O)CNC(=O)[C@H](CO)NC(=O)[C@@H]([C@@H](O)[C@@H]5CNC(N)N5[C@H]5O[C@H](CO)[C@@H](O)[C@H](O)[C@@H]5O)NC(=O)[C@H]([C@@H](O)[C@@H]5CNC(N)N5)NC4=O)cc3)O[C@@H]2CO)[C@@H](O)[C@@H](O)[C@@H]1O (some centres not stated) | No activity | 4 |  | MIC (Staphylococcus aureus [10]): 2 µg/mL (≈ 1.43 µM); MIC (Enterococcus faecalis [11]): 8 µg/mL (≈ 5.72 µM) |
| C[C@@H](c1ccccc1)[C@@H]1NC(=O)CNC(=O)[C@H](CO)NC(=O)[C@@H]([C@@H](O)[C@@H]2CNC(N)N2[C@H]2O[C@H](CO)[C@@H](O)[C@H](O)[C@@H]2O)NC(=O)[C@H]([C@@H](O)[C@@H]2CNC(N)N2)NC(=O)[C@@H](Cc2ccc(O[C@H]3O[C@H](CO)[C@@H](O[C@H]4O[C@H](COC(=O)CCC5CCCC5)[C@@H](O)[C@H](O)[C@@H]4O)[C@H](O)[C@@H]3O)cc2)NC1=O (some centres not stated) | No activity |  | 1 (≈ 0.702 µM) | MIC (Enterococcus faecalis [12]): 4 µg/mL (≈ 2.81 µM) |
| CCCC(CCC)C(=O)OC[C@H]1O[C@H](Oc2ccc(C[C@H]3NC(=O)[C@H]([C@@H](C)c4ccccc4)NC(=O)CNC(=O)[C@H](CO)NC(=O)[C@@H]([C@@H](O)[C@@H]4CNC(N)N4[C@H]4O[C@H](CO)[C@@H](O)[C@H](O)[C@@H]4O)NC(=O)[C@H]([C@@H](O)[C@@H]4CNC(N)N4)NC3=O)cc2)[C@@H](O)[C@@H](O)[C@@H]1O[C@H]1O[C@H](CO)[C@@H](O)[C@H](O)[C@@H]1O (some centres not stated) | No activity |  | 4 (≈ 2.81 µM) | MIC (Enterococcus faecalis [13]): 32 µg/mL (≈ 22.4 µM) |
